Patent publication US12696901B2, “Pesticidally active heterocyclic derivatives with sulfur containing substituents” (SYNGENTA CROP PROTECTION AG, priority 2020, dated 2026)

Experiments:
Assay type in all cases: in vivo
[1] = system: Euschistus heros (Neotropical Brown Stink Bug); experiment: Activity against Euschistus heros (neotropical brown stink bug), sprayed soybean leaves; conditions: 120 h, application rate 200 ppm, N2 nymphs, 5 days after infestation, read-out: effect in at least one of the two categories (mortality or growth inhibition)
Protocol: Example B3: Activity Against Euschistus heros (Neotropical Brown Stink Bug)
Soybean leaves on agar in 24-well microtiter plates were sprayed with aqueous test solutions prepared from 10,000 ppm DMSO stock solutions. After drying the leaves were infested with N2 nymphs. The samples were assessed for mortality and growth inhibition in comparison to untreated samples 5 days after infestation.

[2] = system: Spodoptera littoralis (Egyptian Cotton Leaf Worm); experiment: Activity against Spodoptera littoralis (Egyptian cotton leaf worm), sprayed cotton leaf discs; conditions: foliar, 72 h, application rate 200 ppm, L1 larvae, 3 days after infestation
Protocol: Example B7: Activity Against Spodoptera littoralis (Egyptian Cotton Leaf Worm)
Cotton leaf discs were placed onto agar in 24-well microtiter plates and sprayed with aqueous test solutions prepared from 10,000 ppm DMSO stock solutions. After drying the leaf discs were infested with five L1 larvae. The samples were assessed for mortality, anti-feeding effect, and growth inhibition in comparison to untreated samples 3 days after infestation. Control of Spodoptera littoralis by a test sample is given when at least one of the categories mortality, anti-feedant effect, and growth inhibition is higher than the untreated sample.

[3] = system: Plutella xylostella (Diamond Back Moth); experiment: Activity against Plutella xylostella (diamond back moth), treated artificial diet; conditions: 192 h, application rate 200 ppm, eggs, 8 days after infestation, read-out: effect in at least one of the two categories (mortality or growth inhibition)
Protocol: Example B5: Activity Against Plutella xylostella (Diamond Back Moth)
24-well microtiter plates with artificial diet were treated with aqueous test solutions prepared from 10,000 ppm DMSO stock solutions by pipetting. After drying, Plutella eggs were pipetted through a plastic stencil onto a gel blotting paper and the plate was closed with it. The samples were assessed for mortality and growth inhibition in comparison to untreated samples 8 days after infestation.

[4] = system: Diabrotica balteata (Corn Root Worm); experiment: Activity against Diabrotica balteata (corn root worm), sprayed maize sprouts on agar; conditions: 96 h, application rate 200 ppm, L2 larvae, 4 days after infestation, read-out: effect in at least one of the two categories (mortality or growth inhibition)
Protocol: Example B2: Activity Against Diabrotica balteata (Corn Root Worm)
Maize sprouts placed onto an agar layer in 24-well microtiter plates were treated with aqueous test solutions prepared from 10,000 ppm DMSO stock solutions by spraying. After drying, the plates were infested with L2 larvae (6 to 10 per well). The samples were assessed for mortality and growth inhibition in comparison to untreated samples 4 days after infestation.

[5] = system: Myzus persicae (Green Peach Aphid); experiment: Activity against Myzus persicae (green peach aphid), feeding/contact activity; conditions: 144 h, application rate 200 ppm, mixed ages, 6 days after infestation
Protocol: Example B6: Activity Against Myzus persicae (Green Peach Aphid) Feeding/Contact Activity
Sunflower leaf discs were placed onto agar in a 24-well microtiter plate and sprayed with aqueous test solutions prepared from 10,000 ppm DMSO stock solutions. After drying, the leaf discs were infested with an aphid population of mixed ages. The samples were assessed for mortality 6 days after infestation.

[6] = system: Chilo suppressalis (Striped Rice Stemborer); experiment: Activity against Chilo suppressalis (striped rice stemborer), treated artificial diet; conditions: 144 h, application rate 200 ppm, L2 larvae, 6 days after infestation
Protocol: Example B10: Activity Against Chilo suppressalis (Striped Rice Stemborer)
24-well microtiter plates with artificial diet were treated with aqueous test solutions prepared from 10,000 ppm DMSO stock solutions by pipetting. After drying, the plates were infested with L2 larvae (6-8 per well). The samples were assessed for mortality, anti-feeding effect, and growth inhibition in comparison to untreated samples 6 days after infestation. Control of Chilo suppressalis by a test sample is given when at least one of the categories mortality, anti-feedant effect, and growth inhibition is higher than the untreated sample.

[7] = system: Diabrotica balteata (Corn Root Worm); experiment: Activity against Diabrotica balteata (corn root worm), corn seedlings on filter paper in cups; conditions: 120 h, application rate 3 ppm, L2 larva, 5 days after treatment, read-out: effect in at least one of the two categories (mortality or growth inhibition)
Protocol: Example B12: Activity Against Diabrotica Balteata (Corn Root Worm)
Three corn seedlings were placed on wetted filter paper in plastic cups, and 3 ml of diluted test solutions were pipetted onto them. The cups were infested with 10 L2 larva and checked for mortality and growth regulation 5 days after treatment.

[8] = system: Carpocapsa (Cydia) Pomonella (Codling Moth); experiment: Activity against Carpocapsa (Cydia) pomonella (codling moth), sprayed diet cubes; conditions: 336 h, application rate 12.5 ppm, L1 larvae, 14 days after infestation, read-out: effect in at least one of the two categories (mortality or growth inhibition)
Protocol: Example B11: Activity Against Carpocapsa (Cydia) Pomonella (Codling Moth)
Diet cubes coated with paraffin were sprayed with diluted test solutions in an application chamber. After drying off the treated cubes (10 replicates) were infested with 1 L1 larvae. Samples were incubated at 26-27° C. and checked 14 days after infestation for mortality and growth inhibition. The following compounds gave an effect of at least 80% in at least one of the two categories (mortality or growth inhibition) at an application rate of 12.5 ppm: P1, P2, P3, P4, P5, P6, P10, P11, P12, P14, P15, P16, P17, P19, P20, P21, P22, P24, P27, P29, P30, P33, P34, P35.

CCS(=O)(=O)c1c(N2Cc3ncc(C(F)(F)F)cc3C2=O)nc2ccc(OC)cn12 [Compound P8, 6-(3-ethylsulfonyl-6-methoxy-imidazo [1,2-a]pyridin-2-yl)-3-(trifluoromethyl)-7H-pyrrolo[3,4-b] pyridin-5-one]
≥ 80%: percent effect (mortality or growth inhibition) at 200 ppm [1] | percent control (mortality, anti-feedant effect or growth inhibition) at 200 ppm [2] | percent effect (mortality or growth inhibition) at 200 ppm [3] | percent effect (mortality or growth inhibition) at 200 ppm [4]

CCS(=O)(=O)c1c(N2Cc3ncc(C(F)(F)F)cc3C2=O)nc2ccc(Br)cn12 [Compound P21, 6-(6-bromo-3-ethylsulfonyl-imidazo[1,2-a]pyridin-2-yl)-3-(trifluoromethyl)-7H-pyrrolo[3,4-b]pyridin-5-one]
≥ 80%: percent effect (mortality or growth inhibition) at 200 ppm [1] | mortality at 200 ppm [5] | percent control (mortality, anti-feedant effect or growth inhibition) at 200 ppm [6] | percent control (mortality, anti-feedant effect or growth inhibition) at 200 ppm [2] | percent effect (mortality or growth inhibition) at 200 ppm [3] | percent effect (mortality or growth inhibition) at 3 ppm [7] | percent effect (mortality or growth inhibition) at 12.5 ppm [8] | percent effect (mortality or growth inhibition) at 200 ppm [4]

CCS(=O)(=O)c1c(N2Cc3ncc(C(F)(F)F)cc3C2=O)nc2cc(C3CC3)ccn12 [Compound P24, 6-(7-cyclopropyl-3-ethylsulfonyl-imidazo[1,2-a]pyridin-2-yl)-3-(trifluoromethyl)-7H-pyrrolo[3,4-b]pyridin-5-one]
≥ 80%: percent effect (mortality or growth inhibition) at 200 ppm [1] | mortality at 200 ppm [5] | percent control (mortality, anti-feedant effect or growth inhibition) at 200 ppm [6] | percent control (mortality, anti-feedant effect or growth inhibition) at 200 ppm [2] | percent effect (mortality or growth inhibition) at 200 ppm [3] | percent effect (mortality or growth inhibition) at 3 ppm [7] | percent effect (mortality or growth inhibition) at 12.5 ppm [8] | percent effect (mortality or growth inhibition) at 200 ppm [4]

CCS(=O)(=O)c1c(N2Cc3ncc(C(F)(F)F)cc3C2=O)nc2ccc(OCC(F)(F)F)cn12 [Compound P11, 6-[3-ethylsulfonyl-6-(2,2,2-trifluoroethoxy)imidazo[1,2-a]pyridin-2-yl]-3-(trifluoromethyl)-7H-pyrrolo[3,4-b]pyridin-5-one]
≥ 80%: mortality at 200 ppm [5] | percent control (mortality, anti-feedant effect or growth inhibition) at 200 ppm [6] | percent control (mortality, anti-feedant effect or growth inhibition) at 200 ppm [2] | percent effect (mortality or growth inhibition) at 200 ppm [3] | percent effect (mortality or growth inhibition) at 3 ppm [7] | percent effect (mortality or growth inhibition) at 12.5 ppm [8] | percent effect (mortality or growth inhibition) at 200 ppm [4]

CCS(=O)(=O)c1c(N2Cc3ccc(OC(F)(F)F)cc3C2=O)nc2ccc(Br)cn12 [Compound P29, 2-(6-bromo-3-ethylsulfonyl-imidazo [1,2-a]pyridin-2-yl)-6-(trifluoromethoxy) isoindolin-1-one]
≥ 80%: mortality at 200 ppm [5] | percent control (mortality, anti-feedant effect or growth inhibition) at 200 ppm [6] | percent control (mortality, anti-feedant effect or growth inhibition) at 200 ppm [2] | percent effect (mortality or growth inhibition) at 200 ppm [3] | percent effect (mortality or growth inhibition) at 3 ppm [7] | percent effect (mortality or growth inhibition) at 12.5 ppm [8] | percent effect (mortality or growth inhibition) at 200 ppm [4]

CCS(=O)(=O)c1c(N2Cc3ncc(C(F)(F)F)cc3C2=O)nc2ccc(OCC(F)F)cn12 [Compound P19, 6-[6-(2,2-difluoroethoxy)-3-ethylsulfonyl-imidazo[1,2-a]pyridin-2-yl]-3-(trifluoromethyl)-7H-pyrrolo[3,4-b]pyridin-5-one]
≥ 80%: percent effect (mortality or growth inhibition) at 200 ppm [1] | mortality at 200 ppm [5] | percent control (mortality, anti-feedant effect or growth inhibition) at 200 ppm [6] | percent control (mortality, anti-feedant effect or growth inhibition) at 200 ppm [2] | percent effect (mortality or growth inhibition) at 200 ppm [3] | percent effect (mortality or growth inhibition) at 3 ppm [7] | percent effect (mortality or growth inhibition) at 12.5 ppm [8] | percent effect (mortality or growth inhibition) at 200 ppm [4]

CCS(=O)(=O)c1c(N2Cc3ncc(C(F)(F)F)cc3C2=O)nc2cc(OCC(F)(F)F)ccn12 [Compound P12, 6-[3-ethylsulfonyl-7-(2,2,2-trifluoroethoxy)imidazo[1,2-a]pyridin-2-yl]-3-(trifluoromethyl)-7H-pyrrolo[3,4-b]pyridin-5-one]
≥ 80%: percent effect (mortality or growth inhibition) at 200 ppm [1] | mortality at 200 ppm [5] | percent control (mortality, anti-feedant effect or growth inhibition) at 200 ppm [6] | percent control (mortality, anti-feedant effect or growth inhibition) at 200 ppm [2] | percent effect (mortality or growth inhibition) at 200 ppm [3] | percent effect (mortality or growth inhibition) at 3 ppm [7] | percent effect (mortality or growth inhibition) at 12.5 ppm [8] | percent effect (mortality or growth inhibition) at 200 ppm [4]

CCS(=O)(=O)c1c(N2Cc3ncc(C(F)(F)F)cc3C2=O)nc2cc(Br)ccn12 [Compound P22, 6-(7-bromo-3-ethylsulfonyl-imidazo[1,2-a]pyridin-2-yl)-3-(trifluoromethyl)-7H-pyrrolo[3,4-b]pyridin-5-one]
≥ 80%: mortality at 200 ppm [5] | percent control (mortality, anti-feedant effect or growth inhibition) at 200 ppm [6] | percent control (mortality, anti-feedant effect or growth inhibition) at 200 ppm [2] | percent effect (mortality or growth inhibition) at 200 ppm [3] | percent effect (mortality or growth inhibition) at 3 ppm [7] | percent effect (mortality or growth inhibition) at 12.5 ppm [8] | percent effect (mortality or growth inhibition) at 200 ppm [4]

CCS(=O)(=O)c1c(N2Cc3ccc(OC(F)F)cc3C2=O)nc2ccc(C(F)(F)F)cn12 [Compound P34, 6-(difluoromethoxy)-2-[3-ethylsulfonyl-6-(trifluoromethyl)imidazo[1,2-a]pyridin-2-yl]isoindolin-1-one]
≥ 80%: mortality at 200 ppm [5] | percent control (mortality, anti-feedant effect or growth inhibition) at 200 ppm [6] | percent control (mortality, anti-feedant effect or growth inhibition) at 200 ppm [2] | percent effect (mortality or growth inhibition) at 200 ppm [3] | percent effect (mortality or growth inhibition) at 3 ppm [7] | percent effect (mortality or growth inhibition) at 12.5 ppm [8] | percent effect (mortality or growth inhibition) at 200 ppm [4]
